# Laboratory results taken from patent publication US8952024B2, “Herbicidal pyrimidone derivatives” (E I du Pont de Nemours and Company, priority 2009, dated 2015).
# Key:
# Assay type in all cases: in vivo
# [1] = test system: barnyardgrass (Echinochloa crus-galli); test: Test A pre-/postemergence plant response
# Summary of the method: (§1)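 Seeds planted in loam soil/sand blend; test chemicals in non-phytotoxic solvent mixture with surfactant applied as directed soil spray preemergence and, concurrently, postemergence to plants 2–10 cm tall at one- to two-leaf stage. Greenhouse ~10 days; visual injury vs untreated controls, 0 (no effect) to 100 (complete control).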
# corn (Zea mays) = test: Test A pre-/postemergence plant response
# Summary of the method: as §1
# [2] = test system: giant foxtail (Setaria faberii); test: Test A pre-/postemergence plant response
# Summary of the method: as §1
# [3] = test system: large crabgrass (Digitaria sanguinalis); test: Test A pre-/postemergence plant response
# Summary of the method: as §1
# [4] = test system: morningglory (Ipomoea spp.); test: Test A pre-/postemergence plant response
# Summary of the method: as §1
# [5] = test system: pigweed (Amaranthus retroflexus); test: Test A pre-/postemergence plant response
# Summary of the method: as §1
# [6] = test system: velvetleaf (Abutilon theophrasti); test: Test A pre-/postemergence plant response
# Summary of the method: as §1
# [7] = test system: wheat (Triticum aestivum); test: Test A pre-/postemergence plant response
# Summary of the method: as §1
# [8] = test system: cocklebur (Xanthium strumarium); test: Test B pre-/postemergence plant response
# Summary of the method: (§2)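 Visual injury, 0–100 scale (100 = complete control), rated against controls after 13 to 15 days in greenhouse. Pre-emergence: seeds in loam/sand soil, treated at planting. Post-emergence: 1- to 4-leaf plants (2 to 18 cm) in peat/vermiculite medium. Compounds formulated in non-phytotoxic solvent with surfactant.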
# [9] = test system: morningglory (Ipomoea coccinea); test: Test B pre-/postemergence plant response
# Summary of the method: as §2
# soybean (Glycine max) = test: Test B pre-/postemergence plant response
# Summary of the method: as §2
# [10] = test system: wheat (Triticum aestivum); test: Test B pre-/postemergence plant response
# Summary of the method: as §2
# [11] = Postemergence, 125 g ai/ha, 0 to 100 scale where 0 is no effect and 100 is complete control
# [12] = Postemergence, 500 g ai/ha, 0 to 100 scale, 0 = no effect, 100 = complete control, approx. ten days
# [13] = Preemergence, 125 g ai/ha, 0 to 100 scale, 0 = no effect, 100 = complete control
# [14] = Preemergence, 500 g ai/ha, visual injury, 0 to 100 scale (0 no effect, 100 complete control), approx. ten days
# [15] = 31 g ai/ha, postemergence, scale 0 to 100, 0 is no effect, 100 is complete control
# [16] = 62 g ai/ha, postemergence, 0 is no effect, 100 is complete control, 13 to 15 days
# [17] = Postemergence, 125 g ai/ha, visual rating after 13 to 15 days, scale 0 (no effect) to 100 (complete control)
# [18] = Postemergence, 250 g ai/ha, scale 0 to 100 (0 no effect, 100 complete control)
smiles,measurement,setting,value
CCCc1ncc(C(=O)C2=C(O)CCCC2=O)c(=O)n1-c1cccc(C)c1 [Compound 79],"Plant response rating, Barnyardgrass",[1]; [11],80
same,"Plant response rating, Barnyardgrass",[1]; [12],90
same,"Plant response rating, Barnyardgrass",[1]; [13],0
same,"Plant response rating, Barnyardgrass",[1]; [14],70
same,"Plant response rating, Corn",corn (Zea mays); [11],10
same,"Plant response rating, Corn",corn (Zea mays); [12],60
same,"Plant response rating, Corn",corn (Zea mays); [13],0
same,"Plant response rating, Corn",corn (Zea mays); [14],0
same,"Plant response rating, Foxtail, Giant",[2]; [11],50
same,"Plant response rating, Foxtail, Giant",[2]; [12],80
same,"Plant response rating, Foxtail, Giant",[2]; [13],0
same,"Plant response rating, Foxtail, Giant",[2]; [14],50
same,"Plant response rating, Crabgrass, Large",[3]; [11],80
same,"Plant response rating, Crabgrass, Large",[3]; [12],90
same,"Plant response rating, Crabgrass, Large",[3]; [13],50
same,"Plant response rating, Crabgrass, Large",[3]; [14],100
same,"Plant response rating, Morningglory",[4]; [11],100
same,"Plant response rating, Morningglory",[4]; [12],100
same,"Plant response rating, Morningglory",[4]; [13],0
same,"Plant response rating, Morningglory",[4]; [14],50
same,"Plant response rating, Pigweed",[5]; [11],100
same,"Plant response rating, Pigweed",[5]; [12],100
same,"Plant response rating, Pigweed",[5]; [13],100
same,"Plant response rating, Pigweed",[5]; [14],100
same,"Plant response rating, Velvetleaf",[6]; [11],100
same,"Plant response rating, Velvetleaf",[6]; [12],100
same,"Plant response rating, Velvetleaf",[6]; [13],70
same,"Plant response rating, Velvetleaf",[6]; [14],100
same,"Plant response rating, Wheat",[7]; [11],0
same,"Plant response rating, Wheat",[7]; [12],50
same,"Plant response rating, Wheat",[7]; [13],0
same,"Plant response rating, Wheat",[7]; [14],30
same,"Plant response rating, Cocklebur",[8]; [15],95
same,Cocklebur plant response rating (0 to 100 scale),[8]; [16],98
same,"Plant response rating, Cocklebur",[8]; [17],98
same,"Plant response rating, Cocklebur",[8]; [18],98
same,"Plant response rating, Morningglory",[9]; [15],80
same,Morningglory plant response rating (0 to 100 scale),[9]; [16],95
same,"Plant response rating, Morningglory",[9]; [17],100
same,"Plant response rating, Morningglory",[9]; [18],100
same,"Plant response rating, Soybean",soybean (Glycine max); [15],75
same,Soybean plant response rating (0 to 100 scale),soybean (Glycine max); [16],90
same,"Plant response rating, Soybean",soybean (Glycine max); [17],95
same,"Plant response rating, Soybean",soybean (Glycine max); [18],98
same,"Plant response rating, Wheat",[10]; [15],10
same,Wheat plant response rating (0 to 100 scale),[10]; [16],25
same,"Plant response rating, Wheat",[10]; [17],35
same,"Plant response rating, Wheat",[10]; [18],40
